The subject of data set [1] is Leishmania tropica. As to the kind of experiment: Antileishmanial activity against Leishmania tropica MHOM/A7/1974/SAF-K27 incubated for 48 hrs by Neubauer hemocytometer analysis. The data set is classed as functional, organism-based. The following applies: MHOM/A7/1974/SAF-K27, 48 h.
Data set [2] concerns Leishmania infantum. As to the kind of experiment: Antileishmanial activity against Leishmania infantum MHOM/TN/1980/IPT1 incubated for 48 hrs by Neubauer hemocytometer analysis. The format is functional, organism-based. As to conditions: MHOM/TN/1980/IPT1, 48 h.
The test system of data set [3] is Leishmania tropica. In words: Antileishmanial activity against Leishmania tropica MHOM/A7/1974/SAF-K27 incubated for 48 hrs by XTT method. The following applies: MHOM/A7/1974/SAF-K27, 48 h. The data set is classed as functional, organism-based. For orientation: Tetrazolium assays rely on reduction of a dye to a coloured formazan, in cell work by metabolically active cells.

Data set [4] relates to Leishmania infantum. As to the kind of experiment: Antileishmanial activity against Leishmania infantum MHOM/TN/1980/IPT1 incubated for 48 hrs by XTT method. The format is functional, organism-based. As to conditions: MHOM/TN/1980/IPT1, 48 h.
Another data set has as its target T1, Pteridine reductase 1 (Leishmania major, UniProt Q01782).
T1 sequence (Q01782 whole entry): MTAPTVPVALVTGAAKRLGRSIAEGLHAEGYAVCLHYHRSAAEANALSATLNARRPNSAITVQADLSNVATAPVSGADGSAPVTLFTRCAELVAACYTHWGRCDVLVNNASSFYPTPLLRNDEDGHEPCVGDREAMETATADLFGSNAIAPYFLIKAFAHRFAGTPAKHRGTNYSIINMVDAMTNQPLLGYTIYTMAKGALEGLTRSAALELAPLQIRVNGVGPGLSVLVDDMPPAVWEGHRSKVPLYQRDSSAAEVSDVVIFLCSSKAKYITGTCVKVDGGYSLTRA
As to the kind of experiment: Inhibition of recombinant Leishmania major PTR1 expressed in Escherichia coli BL21 using folic acid as substrate in presence of NADPH.

The test system of data set [5] is DHFR (human) versus PTR1 (Leishmania major). In words: Selectivity index, ratio of IC50 for human DHFR to IC50 for Leishmania major PTR1. The following applies: human DHFR enzyme and Leishmania major PTR1 enzyme, read-out: Ratio IC50. The data set is classed as toxicity.
A short description of data set [6]: (§1) Cytotoxicity against mouse L929 cells by alamar blue method. The data set is classed as toxicity, cell-based. As to conditions: mouse, L929 cells. In general terms: Alamar Blue is a resazurin reagent that responds to reducing activity.
For the next data set, the system named is L929. The description is as §1. The data set is classed as toxicity, cell-based. The following applies: l929.
A short description of data set [7]: (§2) Cytotoxicity against mouse RAW264.7 cells by alamar blue method. The format is toxicity, cell-based. As to conditions: mouse, RAW264.7 cells.
For another data set, the system named is RAW264.7. Described as §2. The data set is classed as toxicity, cell-based. As to conditions: raw264.7.

≈ marks a conversion by molar mass, not a printed value. Where only a bound is given, the exact number is not on record here.

Usually IC50 stands for the concentration needed to halve the response being measured.

Regarding `O=C(Nc1nc2cnc(N3CCCCC3)nc2s1)c1ccc(Cl)c(Cl)c1`, the IC50 in the data set with Leishmania tropica [1] came out at 25.1 µg/mL (≈ 61.6 µM); in the data set with Leishmania infantum [2], 25.7 µg/mL (≈ 63 µM); in the data set on Leishmania tropica [3], 25.5 µg/mL (≈ 62.4 µM); in the data set on Leishmania infantum [4], 25.8 µg/mL (≈ 63.2 µM).

`CN(C)c1ncc2nc(NC(=O)c3ccc(Cl)cc3)sc2n1`: the IC50 with Leishmania tropica [1], with Leishmania infantum [2], with Leishmania tropica [3] and in the data set on Leishmania infantum [4] was more than 300 µg/mL in each case.

As to `O=C(Nc1nc2cnc(N3CCCCC3)nc2s1)c1ccc(Cl)cc1`, the IC50 in the data set with Leishmania tropica [1] stood at 116 µg/mL (≈ 310 µM); with Leishmania infantum [2], 119 µg/mL (≈ 317 µM); with Leishmania tropica [3] it was 122 µg/mL (≈ 327 µM); in the data set on Leishmania infantum [4] it was 121 µg/mL (≈ 324 µM).

As for `CCN(CC)c1ncc2nc(NC(=O)c3ccc(Cl)cc3Cl)sc2n1`, the IC50 is 120 µg/mL (≈ 303 µM) in the data set on Leishmania tropica [1], 123 µg/mL (≈ 310 µM) with Leishmania infantum [2], 125 µg/mL (≈ 315 µM) in the data set with Leishmania tropica [3] and 124 µg/mL (≈ 312 µM) in the data set with Leishmania infantum [4].

Take `CN1CCN(c2ncc3nc(NC(=O)c4ccc(Cl)c([N+](=O)[O-])c4)sc3n2)CC1`: the IC50 in the data set with Leishmania tropica [1] is 51.5 µg/mL (≈ 119 µM); in the data set with Leishmania infantum [2], 58.8 µg/mL (≈ 135 µM); in the data set on Leishmania tropica [3], 53.8 µg/mL (≈ 124 µM); in the data set on Leishmania infantum [4] it was 60.4 µg/mL (≈ 139 µM).

With `O=C(Nc1nc2cnc(Cl)nc2s1)c1ccc(Cl)c(Cl)c1`, the IC50 amounted to 14.8 µg/mL (≈ 41.1 µM) in the data set with Leishmania tropica [1], 14.1 µg/mL (≈ 39.3 µM) in the data set on Leishmania infantum [2], 15.1 µg/mL (≈ 41.9 µM) in the data set with Leishmania tropica [3] and 14.4 µg/mL (≈ 40 µM) with Leishmania infantum [4].

Turning to `CN(C)c1ncc2nc(NC(=O)c3ccc(Cl)c(Cl)c3)sc2n1`, the IC50 turned out to be 116 µg/mL (≈ 315 µM) in the data set on Leishmania tropica [1], 112 µg/mL (≈ 304 µM) in the data set with Leishmania infantum [2], 119 µg/mL (≈ 322 µM) in the data set with Leishmania tropica [3] and 114 µg/mL (≈ 310 µM) in the data set on Leishmania infantum [4].

Take `CCOC(=O)N1CCN(c2ncc3nc(NC(=O)c4ccc(Cl)cc4)sc3n2)CC1`: the IC50 in the data set on Leishmania tropica [1] amounted to 53.9 µg/mL (≈ 121 µM); in the data set on Leishmania infantum [2], 52.4 µg/mL (≈ 117 µM); in the data set with Leishmania tropica [3] it was 54.1 µg/mL (≈ 121 µM); in the data set with Leishmania infantum [4] it was 53.5 µg/mL (≈ 120 µM).

With `O=C(Nc1nc2cnc(N3CCCCC3)nc2s1)c1ccc(Cl)cc1Cl`, the IC50 in the data set with Leishmania tropica [1] came to 16.3 µg/mL (≈ 39.9 µM); in the data set on Leishmania infantum [2], 16.8 µg/mL (≈ 41.1 µM); in the data set on Leishmania tropica [3], 16.3 µg/mL (≈ 39.8 µM); in the data set on Leishmania infantum [4] it was 16.8 µg/mL (≈ 41.1 µM).

For `O=C(Nc1nc2cnc(N3CCOCC3)nc2s1)c1ccc(Cl)c(Cl)c1`, the IC50 worked out at 40.3 µg/mL (≈ 98.2 µM) in the data set with Leishmania tropica [1], 44.1 µg/mL (≈ 108 µM) with Leishmania infantum [2], 41.4 µg/mL (≈ 101 µM) in the data set on Leishmania tropica [3] and 44.6 µg/mL (≈ 109 µM) in the data set on Leishmania infantum [4].

As for `O=C(Nc1nc2cnc(N3CCCCC3)nc2s1)c1ccc(Cl)c([N+](=O)[O-])c1`, the IC50 came out at 56.8 µg/mL (≈ 136 µM) in the data set on Leishmania tropica [1], 64 µg/mL (≈ 153 µM) in the data set with Leishmania infantum [2], 56.7 µg/mL (≈ 135 µM) with Leishmania tropica [3] and 63.5 µg/mL (≈ 152 µM) in the data set with Leishmania infantum [4].

Take `O=C(Nc1nc2cnc(N3CCCC3)nc2s1)c1ccc(Cl)c(Cl)c1`: the IC50 with Leishmania tropica [1], in the data set with Leishmania infantum [2], with Leishmania tropica [3] and with Leishmania infantum [4] was more than 300 µg/mL throughout.

Take `CCOC(=O)N1CCN(c2ncc3nc(NC(=O)c4ccc(Cl)cc4Cl)sc3n2)CC1`: the IC50 in the data set on Leishmania tropica [1], in the data set with Leishmania infantum [2], with Leishmania tropica [3] and in the data set on Leishmania infantum [4] was more than 300 µg/mL each time.

As to `CC(=O)N1CCN(c2ncc3nc(NC(=O)c4ccc(Cl)cc4)sc3n2)CC1`, the IC50 in the data set with Leishmania tropica [1], in the data set on Leishmania infantum [2], in the data set with Leishmania tropica [3] and in the data set on Leishmania infantum [4] was more than 300 µg/mL throughout.

For `O=C(Nc1nc2cnc(Cl)nc2s1)c1ccc(Cl)c([N+](=O)[O-])c1`, the IC50 with Leishmania tropica [1] was determined as 30.6 µg/mL (≈ 82.7 µM); in the data set on Leishmania infantum [2] it was 30.5 µg/mL (≈ 82.4 µM); with Leishmania tropica [3], 30.7 µg/mL (≈ 82.9 µM); with Leishmania infantum [4], 30.6 µg/mL (≈ 82.6 µM).

In the case of `O=C(Nc1nc2cnc(N3CCOCC3)nc2s1)c1ccc(Cl)cc1`, the IC50 in the data set with Leishmania tropica [1], with Leishmania infantum [2], with Leishmania tropica [3] and with Leishmania infantum [4] was more than 300 µg/mL in each case.

`O=C(Nc1nc2cnc(N3CCCC3)nc2s1)c1ccc(Cl)cc1`: the IC50 in the data set on Leishmania tropica [1] turned out to be 137 µg/mL (≈ 380 µM); in the data set on Leishmania infantum [2], 114 µg/mL (≈ 315 µM); in the data set with Leishmania tropica [3], 141 µg/mL (≈ 392 µM); in the data set with Leishmania infantum [4] it was 117 µg/mL (≈ 326 µM).

In the case of `CC(=O)N1CCN(c2ncc3nc(NC(=O)c4ccc(Cl)cc4Cl)sc3n2)CC1`, the IC50 turned out to be 75 µg/mL (≈ 166 µM) in the data set on Leishmania tropica [1], 77.7 µg/mL (≈ 172 µM) in the data set on Leishmania infantum [2], 75.8 µg/mL (≈ 168 µM) in the data set with Leishmania tropica [3] and 78.6 µg/mL (≈ 174 µM) with Leishmania infantum [4].

On to `CN(C)c1ncc2nc(NC(=O)c3ccc(Cl)cc3Cl)sc2n1`, for which the IC50 in the data set with Leishmania tropica [1] worked out at 86.6 µg/mL (≈ 235 µM); in the data set on Leishmania infantum [2] it was 84.1 µg/mL (≈ 228 µM); with Leishmania tropica [3] it was 86.2 µg/mL (≈ 234 µM); in the data set on Leishmania infantum [4], 81.1 µg/mL (≈ 220 µM).

As to `O=C(Nc1nc2cnc(N3CCOCC3)nc2s1)c1ccc(Cl)cc1Cl`, the IC50 with Leishmania tropica [1] was 90.3 µg/mL (≈ 220 µM); with Leishmania infantum [2], 91.1 µg/mL (≈ 222 µM); in the data set on Leishmania tropica [3], 90.6 µg/mL (≈ 221 µM); in the data set on Leishmania infantum [4], 90.9 µg/mL (≈ 222 µM).

Regarding `CCN(CC)c1ncc2nc(NC(=O)c3ccc(Cl)cc3)sc2n1`, the IC50 with Leishmania tropica [1] stood at 186 µg/mL (≈ 515 µM); in the data set with Leishmania infantum [2], 191 µg/mL (≈ 528 µM); in the data set on Leishmania tropica [3], 188 µg/mL (≈ 520 µM); in the data set on Leishmania infantum [4], 189 µg/mL (≈ 523 µM).

As to `O=C(Nc1nc2cnc(N3CCCC3)nc2s1)c1ccc(Cl)cc1Cl`, the IC50 is 51.2 µg/mL (≈ 130 µM) in the data set with Leishmania tropica [1], 52.4 µg/mL (≈ 133 µM) in the data set with Leishmania infantum [2], 52 µg/mL (≈ 132 µM) with Leishmania tropica [3] and 52.6 µg/mL (≈ 133 µM) in the data set with Leishmania infantum [4].

In the case of `CC(=O)N1CCN(c2ncc3nc(NC(=O)c4ccc(Cl)c([N+](=O)[O-])c4)sc3n2)CC1`, the IC50 was found to be 34.4 µg/mL (≈ 74.4 µM) with Leishmania tropica [1], 35.5 µg/mL (≈ 76.8 µM) in the data set on Leishmania infantum [2], 35.3 µg/mL (≈ 76.3 µM) in the data set with Leishmania tropica [3] and 36.1 µg/mL (≈ 78.1 µM) in the data set with Leishmania infantum [4].

In the case of `CC(=O)N1CCN(c2ncc3nc(NC(=O)c4ccc(Cl)c(Cl)c4)sc3n2)CC1`, the IC50 was found to be 147 µg/mL (≈ 326 µM) in the data set on Leishmania tropica [1], 126 µg/mL (≈ 279 µM) in the data set with Leishmania infantum [2], 149 µg/mL (≈ 331 µM) with Leishmania tropica [3] and 127 µg/mL (≈ 282 µM) in the data set on Leishmania infantum [4].

On to `CCN(CC)c1ncc2nc(NC(=O)c3ccc(Cl)c([N+](=O)[O-])c3)sc2n1`, for which the IC50 was 15.8 µg/mL (≈ 38.7 µM) in the data set with Leishmania tropica [1]; 15.1 µg/mL (≈ 37.2 µM) in the data set on Leishmania infantum [2]; 15.6 µg/mL (≈ 38.2 µM) in the data set on Leishmania tropica [3]; 15.3 µg/mL (≈ 37.6 µM) with Leishmania infantum [4]; 254 µM at Pteridine reductase 1; 19.1 µg/mL (≈ 46.8 µM) in data set [6]. In addition, inhibition in data set [7] was half-maximal at 4.47 µg/mL (≈ 11 µM) (IC50). Moreover, the selectivity ratio in data set [5] is 12.6. The “log10 IC50 (µg/mL)” value with L929 is listed as 1.28; in the data set on RAW264.7 it was 0.65.

The record behind these values is ChEMBL document CHEMBL5352486, “Design, synthesis, in vitro - In vivo biological evaluation of novel thiazolopyrimidine compounds as antileishmanial agent with PTR1 inhibition” (Eur J Med Chem, 2023).
